Reference: the supplement of paper PMC6045584
± gives the standard deviation of the averaged measurements.

Columns and labels:
[1] = compound: COc1ccc(-c2cc3c(C)nc(N)nc3n([C@H]3CC[C@H](OCCO)CC3)c2=O)cn1; test: surviving fraction relative to DMSO-only wells; higher = less growth inhibition; conditions: exposure time: 5 days
Summary of the method: (§1)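 Tumour cell lines were seeded in log phase at 250–500 cells per well into 384-well plates. Starting 24 hours later, inhibitors were present continuously for five days at 0.5, 1, 5, 10, 50, 100, 500 and 1000 nM. Surviving fraction, from CellTiter-Glo luminescence, is normalised to the median of DMSO-only wells. Three screens per line were required, with replicate Pearson r >0.7 and median Z' >0.3 for a line to be kept.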

VORINOSTAT = compound: O=C(CCCCCCC(=O)Nc1ccccc1)NO [VORINOSTAT]; test: as above; conditions: exposure time: 5 days
Summary of the method: as §1

Row | Test System | surviving fraction ([1]; 0.5 nM) | surviving fraction ([1]; 1 nM) | surviving fraction ([1]; 5 nM) | surviving fraction ([1]; 10 nM) | surviving fraction ([1]; 50 nM) | surviving fraction ([1]; 100 nM) | surviving fraction ([1]; 500 nM) | surviving fraction ([1]; 1000 nM) | surviving fraction (VORINOSTAT; 0.5 nM) | surviving fraction (VORINOSTAT; 1 nM) | surviving fraction (VORINOSTAT; 5 nM) | surviving fraction (VORINOSTAT; 10 nM) | surviving fraction (VORINOSTAT; 50 nM) | surviving fraction (VORINOSTAT; 100 nM) | surviving fraction (VORINOSTAT; 500 nM) | surviving fraction (VORINOSTAT; 1000 nM)
1 | MDAMB436 BREAST | 0.881 ± 0.036 | 0.856 ± 0.055 | 0.8 ± 0.031 | 0.75 ± 0.051 | 0.582 ± 0.027 | 0.432 ± 0.023 | 0.265 ± 0.016 | 0.2398 ± 0.0015 | 0.83 ± 0.045 | 0.905 ± 0.045 | 0.854 ± 0.056 | 0.911 ± 0.086 | 0.937 ± 0.081 | 0.835 ± 0.055 | 0.766 ± 0.072 | 0.582 ± 0.066
2 | MDAMB453 BREAST | 1.08 ± 0.075 | 1.03 ± 0.078 | 1.05 ± 0.054 | 1.06 ± 0.069 | 0.603 ± 0.051 | 0.312 ± 0.047 | 0.0933 ± 0.0086 | 0.0587 ± 0.016 | 0.998 ± 0.032 | 1.01 ± 0.079 | 1.03 ± 0.062 | 1.05 ± 0.065 | 1.06 ± 0.038 | 1.06 ± 0.022 | 0.785 ± 0.036 | 0.244 ± 0.0089
3 | MDAMB468 BREAST | 0.971 ± 0.045 | 0.965 ± 0.12 | 0.989 ± 0.024 | 1 ± 0.078 | 0.857 ± 0.019 | 0.733 ± 0.021 | 0.255 ± 0.019 | 0.0787 ± 0.0084 | 0.891 ± 0.052 | 0.951 ± 0.03 | 1 ± 0.044 | 0.978 ± 0.023 | 1.12 ± 0.061 | 1.133 ± 0.007 | 0.818 ± 0.036 | 0.469 ± 0.007
4 | MFM223 BREAST | 1.09 ± 0.086 | 1.1 ± 0.063 | 1.04 ± 0.061 | 0.993 ± 0.079 | 0.674 ± 0.071 | 0.432 ± 0.016 | 0.127 ± 0.012 | 0.0725 ± 0.0048 | 1.05 ± 0.16 | 1.09 ± 0.047 | 1.13 ± 0.034 | 1.04 ± 0.043 | 1.18 ± 0.028 | 1.08 ± 0.03 | 0.738 ± 0.086 | 0.361 ± 0.029
5 | MG63 BONE | 0.984 ± 0.0072 | 0.97 ± 0.04 | 0.9233 ± 0.009 | 0.833 ± 0.035 | 0.539 ± 0.021 | 0.348 ± 0.011 | 0.137 ± 0.0046 | 0.0953 ± 0.0011 | 1.03 ± 0.021 | 0.98033 ± 0.00058 | 1.058 ± 0.0097 | 1.02 ± 0.038 | 1.081 ± 0.0029 | 1.121 ± 0.011 | 1.02 ± 0.019 | 0.8407 ± 0.0078
6 | MHM BONE | 0.999 ± 0.011 | 0.967 ± 0.013 | 0.99 ± 0.012 | 0.957 ± 0.018 | 0.888 ± 0.029 | 0.823 ± 0.013 | 0.478 ± 0.015 | 0.29 ± 0.0046 | 0.928 ± 0.025 | 0.9847 ± 0.0087 | 1.01 ± 0.028 | 0.981 ± 0.019 | 1.03 ± 0.011 | 1 ± 0.019 | 0.985 ± 0.013 | 0.843 ± 0.025
7 | NCIH441 LUNG | 1.03 ± 0.068 | 1.03 ± 0.071 | 1.06 ± 0.064 | 0.966 ± 0.058 | 0.886 ± 0.048 | 0.789 ± 0.028 | 0.425 ± 0.021 | 0.412 ± 0.015 | 1.12 ± 0.041 | 1.02 ± 0.089 | 1.06 ± 0.033 | 1.04 ± 0.038 | 1.14 ± 0.02 | 0.959 ± 0.086 | 0.939 ± 0.024 | 0.546 ± 0.045
8 | NOS1 BONE | 1.13 ± 0.032 | 0.989 ± 0.13 | 1.2 ± 0.16 | 0.96 ± 0.1 | 0.6 ± 0.048 | 0.448 ± 0.029 | 0.158 ± 0.0032 | 0.095 ± 0.015 | 1.01 ± 0.05 | 0.982 ± 0.17 | 1.04 ± 0.021 | 1.03 ± 0.056 | 1.14 ± 0.15 | 1.07 ± 0.091 | 0.713 ± 0.089 | 0.284 ± 0.0091
9 | NY BONE | 0.925 ± 0.027 | 0.916 ± 0.038 | 0.909 ± 0.022 | 0.84 ± 0.047 | 0.668 ± 0.029 | 0.602 ± 0.028 | 0.369 ± 0.019 | 0.317 ± 0.0068 | 0.9877 ± 0.004 | 0.918 ± 0.029 | 0.973 ± 0.023 | 0.98 ± 0.033 | 1.037 ± 0.0042 | 0.916 ± 0.019 | 0.701 ± 0.012 | 0.448 ± 0.016
10 | OS25HAL BONE | 0.95 ± 0.012 | 0.9753 ± 0.0029 | 0.9657 ± 0.0091 | 0.86 ± 0.041 | 0.603 ± 0.042 | 0.35 ± 0.066 | 0.13 ± 0.0092 | 0.0623 ± 0.0049 | 0.987 ± 0.014 | 0.962 ± 0.015 | 0.991 ± 0.015 | 0.943 ± 0.033 | 1.046 ± 0.0047 | 1.03 ± 0.031 | 0.91 ± 0.011 | 0.498 ± 0.018
11 | OSHN BONE | 1.03 ± 0.024 | 1.03 ± 0.035 | 1.02 ± 0.029 | 1.01 ± 0.03 | 1.1 ± 0.0058 | 1.03 ± 0.034 | 0.447 ± 0.016 | 0.267 ± 0.0045 | 1.05 ± 0.026 | 1.04 ± 0.019 | 1.05 ± 0.022 | 1.028 ± 0.0032 | 1.08 ± 0.042 | 1.08 ± 0.032 | 1.1 ± 0.022 | 0.903 ± 0.022
12 | PCI30 HEADNECK | 0.935 ± 0.034 | 0.947 ± 0.079 | 0.902 ± 0.023 | 0.963 ± 0.1 | 0.716 ± 0.028 | 0.495 ± 0.033 | 0.181 ± 0.004 | 0.151 ± 0.0076 | 0.958 ± 0.064 | 0.982 ± 0.079 | 0.933 ± 0.087 | 1.01 ± 0.039 | 1.07 ± 0.053 | 0.962 ± 0.066 | 0.88 ± 0.064 | 0.735 ± 0.059
13 | RDES SOFT TISSUE | 1.23 ± 0.074 | 1.24 ± 0.12 | 1.13 ± 0.1 | 1.22 ± 0.097 | 1.34 ± 0.055 | 1.03 ± 0.038 | 0.301 ± 0.015 | 0.166 ± 0.021 | 1.21 ± 0.099 | 1.19 ± 0.13 | 1.2 ± 0.029 | 1.1 ± 0.02 | 1.05 ± 0.073 | 1.11 ± 0.12 | 0.831 ± 0.13 | 1.12 ± 0.39
14 | S68 BREAST | 0.953 ± 0.24 | 0.88 ± 0.11 | 0.993 ± 0.2 | 0.845 ± 0.18 | 0.334 ± 0.082 | 0.16 ± 0.02 | 0.0503 ± 0.0051 | 0.034 ± 0.001 | 0.723 ± 0.22 | 0.82 ± 0.18 | 0.91 ± 0.38 | 0.998 ± 0.21 | 1.22 ± 0.28 | 1.07 ± 0.17 | 0.73 ± 0.19 | 0.384 ± 0.018
15 | SAOS2 BONE | 1.11 ± 0.018 | 1.07 ± 0.016 | 0.98 ± 0.083 | 0.931 ± 0.04 | 0.636 ± 0.018 | 0.52 ± 0.014 | 0.174 ± 0.0087 | 0.0977 ± 0.0011 | 1.09 ± 0.027 | 1.07 ± 0.047 | 1.09 ± 0.07 | 0.997 ± 0.088 | 1.24 ± 0.021 | 1.06 ± 0.048 | 0.91 ± 0.053 | 0.73 ± 0.017
16 | SCC003 HEADNECK | 1.03 ± 0.13 | 1.04 ± 0.057 | 1.02 ± 0.18 | 1.02 ± 0.036 | 0.879 ± 0.098 | 0.878 ± 0.13 | 0.23 ± 0.034 | 0.206 ± 0.049 | 1 ± 0.086 | 1.01 ± 0.15 | 1.02 ± 0.1 | 1.01 ± 0.093 | 1.09 ± 0.067 | 1.12 ± 0.091 | 1.14 ± 0.12 | 0.847 ± 0.16
17 | SCC36 HEADNECK | 1.11 ± 0.012 | 0.988 ± 0.031 | 0.914 ± 0.016 | 1.11 ± 0.056 | 0.807 ± 0.017 | 0.84 ± 0.086 | 0.167 ± 0.024 | 0.143 ± 0.024 | 1.01 ± 0.084 | 0.977 ± 0.073 | 1.1 ± 0.024 | 1.06 ± 0.082 | 1.12 ± 0.1 | 1.14 ± 0.12 | 0.677 ± 0.038 | 0.589 ± 0.054
18 | SCC47 HEADNECK | 0.983 ± 0.021 | 0.992 ± 0.084 | 0.992 ± 0.027 | 1.01 ± 0.015 | 0.903 ± 0.032 | 0.886 ± 0.019 | 0.371 ± 0.013 | 0.225 ± 0.0095 | 1.03 ± 0.04 | 1.03 ± 0.077 | 1.12 ± 0.034 | 1.02 ± 0.016 | 1.05 ± 0.023 | 1.1 ± 0.044 | 1.02 ± 0.083 | 0.897 ± 0.028
19 | SCC90 HEADNECK | 0.913 ± 0.076 | 0.916 ± 0.037 | 0.892 ± 0.034 | 0.904 ± 0.15 | 0.674 ± 0.074 | 0.555 ± 0.077 | 0.194 ± 0.025 | 0.222 ± 0.054 | 1.13 ± 0.3 | 0.999 ± 0.1 | 1.13 ± 0.19 | 1.03 ± 0.1 | 1 ± 0.046 | 0.89 ± 0.089 | 0.689 ± 0.012 | 0.547 ± 0.0096
